Test results reported in PMC7932029 (Journal of natural products, 2020).
Structures can show the parent of a compound that is named as a salt.

Assays:
[1] = molecular target: T1, μOR (Homo sapiens, UniProt P35372); test: PathHunter β-arrestin 2 recruitment assay, μOR
[2] = molecular target: HA-mouse μOR (Mus musculus, UniProt P42866); test: GloSensor cAMP inhibition assay, μOR; assay type: cell-based; settings: efficacy normalized to positive control DAMGO
[3] = molecular target: T1, μOR; test: PDSP primary radioligand displacement screen, μOR; assay type: binding; settings: 10 μM
[4] = Partition coefficients of akuamma alkaloids in CCS solvent systems; assay type: physicochemical; settings: for Kacid: 10 mM HCl; for Kbase: 10 mM TEA
[5] = molecular target: T2, κOR (Homo sapiens, UniProt P41145); assay type: binding
[6] = molecular target: T2, κOR; test: PDSP secondary binding assay, κOR
[7] = molecular target: T2, κOR; assay type: cell-based
[8] = test system: C57BL/6 mice; test: Hot plate thermal nociception assay; assay type: in vivo, mouse
[9] = test system: C57BL/6 mice; test: Tail flick thermal nociception assay; assay type: in vivo, mouse
[10] = test system: Wistar rats; settings: p.o., cited from earlier work
[11] = molecular target: FLAG-mouse κOR (Mus musculus, UniProt P33534); assay type: cell-based
[12] = molecular target: human δOR (Homo sapiens, UniProt P41143); test: PathHunter β-arrestin 2 recruitment assay, δOR; settings: highest concentration tested, in words
[13] = molecular target: FLAG-mouse δOR (Mus musculus, UniProt P32300); test: GloSensor cAMP inhibition assay, δOR; assay type: cell-based; settings: efficacy normalized to positive control Leu-Enk
[14] = 5 mg/kg p.o., any of the timepoints tested

T2 sequence (P41145 whole entry): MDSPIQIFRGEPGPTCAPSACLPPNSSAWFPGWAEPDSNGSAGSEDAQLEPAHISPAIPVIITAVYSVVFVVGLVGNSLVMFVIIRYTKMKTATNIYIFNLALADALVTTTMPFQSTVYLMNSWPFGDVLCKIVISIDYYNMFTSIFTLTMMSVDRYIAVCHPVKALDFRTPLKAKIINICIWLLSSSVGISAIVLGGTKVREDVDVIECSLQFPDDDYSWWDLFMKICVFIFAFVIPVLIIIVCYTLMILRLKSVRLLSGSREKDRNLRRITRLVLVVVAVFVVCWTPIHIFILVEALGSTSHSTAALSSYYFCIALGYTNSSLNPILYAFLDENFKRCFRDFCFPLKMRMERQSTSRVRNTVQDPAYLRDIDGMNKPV
T1 sequence (P35372 whole entry): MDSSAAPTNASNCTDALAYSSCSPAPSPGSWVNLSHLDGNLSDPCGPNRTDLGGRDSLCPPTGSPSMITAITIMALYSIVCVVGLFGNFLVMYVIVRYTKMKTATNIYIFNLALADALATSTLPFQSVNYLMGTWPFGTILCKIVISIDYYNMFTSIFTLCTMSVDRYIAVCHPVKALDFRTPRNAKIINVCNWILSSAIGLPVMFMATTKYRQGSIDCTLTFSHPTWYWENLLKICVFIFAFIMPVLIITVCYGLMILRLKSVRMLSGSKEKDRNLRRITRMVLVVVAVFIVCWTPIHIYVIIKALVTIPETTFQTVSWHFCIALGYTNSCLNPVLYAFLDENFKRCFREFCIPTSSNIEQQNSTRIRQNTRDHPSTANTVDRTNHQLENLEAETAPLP
HA-mouse μOR, sequence (P42866 whole entry): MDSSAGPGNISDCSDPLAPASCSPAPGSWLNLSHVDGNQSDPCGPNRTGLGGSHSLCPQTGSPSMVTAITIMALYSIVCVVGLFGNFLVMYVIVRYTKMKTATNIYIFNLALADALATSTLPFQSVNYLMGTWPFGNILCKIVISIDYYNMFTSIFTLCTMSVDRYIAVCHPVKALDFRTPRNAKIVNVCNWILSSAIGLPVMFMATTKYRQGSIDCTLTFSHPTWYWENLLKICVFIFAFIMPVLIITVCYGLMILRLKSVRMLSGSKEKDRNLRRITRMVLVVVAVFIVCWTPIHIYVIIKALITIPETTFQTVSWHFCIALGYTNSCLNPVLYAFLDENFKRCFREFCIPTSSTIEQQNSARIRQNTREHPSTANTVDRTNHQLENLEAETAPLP
FLAG-mouse κOR, sequence (P33534 whole entry): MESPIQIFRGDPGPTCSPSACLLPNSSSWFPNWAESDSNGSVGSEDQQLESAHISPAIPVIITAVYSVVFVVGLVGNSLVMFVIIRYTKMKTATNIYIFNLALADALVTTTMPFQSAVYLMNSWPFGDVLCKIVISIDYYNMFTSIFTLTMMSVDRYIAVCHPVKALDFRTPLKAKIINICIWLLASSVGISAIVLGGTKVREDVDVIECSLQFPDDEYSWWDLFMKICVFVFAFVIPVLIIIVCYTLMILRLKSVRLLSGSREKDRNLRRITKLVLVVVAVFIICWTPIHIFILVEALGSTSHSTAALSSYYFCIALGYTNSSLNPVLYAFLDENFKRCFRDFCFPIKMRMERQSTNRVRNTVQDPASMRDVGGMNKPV
FLAG-mouse δOR, sequence (P32300 whole entry): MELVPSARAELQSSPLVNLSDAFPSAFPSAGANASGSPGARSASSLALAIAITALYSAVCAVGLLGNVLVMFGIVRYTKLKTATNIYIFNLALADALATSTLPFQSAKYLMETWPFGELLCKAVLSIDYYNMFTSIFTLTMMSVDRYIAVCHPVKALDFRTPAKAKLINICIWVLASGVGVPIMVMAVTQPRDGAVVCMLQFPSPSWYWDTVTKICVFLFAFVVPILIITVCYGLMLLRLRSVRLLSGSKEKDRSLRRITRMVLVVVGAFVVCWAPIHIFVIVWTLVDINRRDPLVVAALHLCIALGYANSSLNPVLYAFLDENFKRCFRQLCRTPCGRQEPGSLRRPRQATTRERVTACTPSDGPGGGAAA
human δOR, sequence (P41143 whole entry): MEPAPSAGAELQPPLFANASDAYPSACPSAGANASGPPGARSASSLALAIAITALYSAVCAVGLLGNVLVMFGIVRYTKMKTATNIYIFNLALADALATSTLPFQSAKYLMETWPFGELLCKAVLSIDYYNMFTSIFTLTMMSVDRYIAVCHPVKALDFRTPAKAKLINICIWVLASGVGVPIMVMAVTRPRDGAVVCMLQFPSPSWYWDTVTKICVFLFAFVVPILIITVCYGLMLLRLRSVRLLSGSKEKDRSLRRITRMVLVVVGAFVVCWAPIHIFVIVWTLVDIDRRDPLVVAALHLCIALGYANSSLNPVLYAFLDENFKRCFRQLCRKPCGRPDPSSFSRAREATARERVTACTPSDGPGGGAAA

## C[C@@H](NC(=O)[C@@H](N)Cc1ccc(O)cc1)C(=O)NCC(=O)N(C)[C@@H](Cc1ccccc1)C(=O)NCCO [DAMGO, (2S)-2-[[2-[[(2R)-2-[[(2S)-2-Amino-3-(4-hydroxyphenyl)propanoyl]amino]propanoyl]amino]acetyl]-methylamino]-N-(2-hydroxyethyl)-3-phenylpropanamide, reference compound]
[1]; efficacy normalized to positive control DAMGO
  β-arrestin 2 α: 100
[2]
  cAMP α: 100

## C/C=C1/CN2CC[C@]34C(=Nc5ccccc53)[C@@H]2C[C@@H]1[C@@]4(COC(C)=O)C(=O)OC [Compound 5, akuammiline]
[3]
  displacement of [3H]-DAMGO: significantly less displacement
[4]; 1:1:1:1 Hex/EtOAc/MeOH/H2O
  Kacid: <<0.01
  Kbase: 0.23
[4]; 1:1 EtOAc/H2O
  Kacid: 0.03
  Kbase: 28.2
[4]; 2:2:3 MTBE/CH3CN/H2O
  Kacid: 0.27
  Kbase: 5.61
[4]; 3:1.5:4 MTBE/CH3CN/H2O
  Kacid: 0.05
  Kbase: 6.82
[4]; 3:7:3:7 Hex/EtOAc/MeOH/H2O
  Kacid: <<0.01
  Kbase: 2.53
[5]
  Binding pKi: −6.0 ± 0.1 (3)
[6]
  Ki: 400 nM

## C/C=C1/CN2CC[C@@]34c5ccccc5N(C)[C@]35OC[C@@]4(C(=O)OC)[C@H]1C[C@H]25 [Compound 3, pseudo-akuammigine]
[7]
  β-arrestin 2 α: 20 ± 20
[3]
  displacement of [3H]-DAMGO: displaced
[8]; [14]
  antinociception: did not produce antinociception
[8]; 5 mg/kg s.c., 30 minutes
  antinociception: minimal yet statistically significant antinociception
[8]; 10 mg/kg s.c., 30 minutes
  antinociception: failed to produce antinociception
[4]; 1:1:1:1 Hex/EtOAc/MeOH/H2O
  Kacid: <<0.01
  Kbase: 2.71
[4]; 1:1 EtOAc/H2O
  Kacid: 0.10
  Kbase: 51.9
[4]; 2:2:3 MTBE/CH3CN/H2O
  Kbase: 87.0
[4]; 3:1.5:4 MTBE/CH3CN/H2O
  Kacid: 0.25
  Kbase: 30.9
[4]; 3:7:3:7 Hex/EtOAc/MeOH/H2O
  Kacid: <<0.01
  Kbase: 32.3
[9]; [14]
  antinociception: did not produce antinociception
[9]; 5 mg/kg s.c., 30 minutes
  antinociception: minimal yet statistically significant antinociception
[9]; 5 mg/kg s.c., 60 minutes
  antinociception: minimal yet statistically significant antinociception
[9]; 10 mg/kg s.c., 30 minutes
  antinociception: failed to produce antinociception
[10]; Wistar rats, 5 mg/kg
  antinociception: antinociceptive
[10]; rats
  time of peak antinociceptive activity: 180 min
[2]
  cAMP α: 82 ± 7
[11]
  cAMP α: 69 ± 8

## C/C=C1/CN2[C@H]3Cc4c([nH]c5ccccc45)[C@@H]2C[C@@H]1[C@]3(CO)C(=O)OC [Compound 2, akuammidine]
[8]; 3 mg/kg s.c., 110 minutes
  antinociception: minimal, yet statistically significant, antinociception
[8]; oral dosing, data not shown
  antinociception: no antinociception was measurable
[12]
  β-arrestin recruitment: minimal recruitment
[1]; highest concentration tested, in words
  β-arrestin 2 recruitment: minimal recruitment
[9]; 10 mg/kg s.c., 50 minutes
  antinociception: minimal yet statistically significant antinociception
[9]; 30 mg/kg s.c., 30 minutes
  antinociception: minimal yet statistically significant antinociception
[9]; oral dosing, data not shown
  antinociception: no antinociception was measurable
[5]
  Binding pKi: −4.8 ± 0.1 (3)

## CN1CC[C@]23c4c5ccc(O)c4O[C@H]2[C@@H](O)C=C[C@H]3[C@H]1C5 [morphine, morphine sulfate pentahydrate, reference compound]
[8]; 6 mg/kg s.c., 30 min
  antinociception: significant antinociception
[9]; 6 mg/kg s.c., 30 min
  antinociception: significant antinociception

## C/C=C1/CN2[C@@H]3C[C@@]45c6ccccc6N[C@]4(O3)[C@@H]2C[C@@H]1[C@@]5(COC(C)=O)C(=O)OC [Compound 6, picraline]
[3]
  displacement of [3H]-DAMGO: significantly less displacement
[4]; 1:1:1:1 Hex/EtOAc/MeOH/H2O
  Kacid: <<0.01
  Kbase: 0.82
[4]; 1:1 EtOAc/H2O
  Kacid: 0.03
  Kbase: 16.09
[4]; 2:2:3 MTBE/CH3CN/H2O
  Kacid: 0.56
  Kbase: 11.4
[4]; 3:1.5:4 MTBE/CH3CN/H2O
  Kacid: 0.10
  Kbase: 17.4
[4]; 3:7:3:7 Hex/EtOAc/MeOH/H2O
  Kacid: 0.01
  Kbase: 7.29

## C/C=C1/CN2CC[C@@]34c5cc(O)ccc5N(C)[C@]35OC[C@@]4(C(=O)OC)[C@H]1C[C@H]25 [Compound 1, akuammine]
[7]
  β-arrestin 2 α: 35 ± 6
[13]
  cAMP α: 50 ± 35
[3]
  displacement of [3H]-DAMGO: displaced
[8]; 3 mg/kg s.c., 110 minutes
  antinociception: minimal yet statistically significant antinociception
[8]; 30 mg/kg s.c., 60 minutes
  antinociception: minimal yet statistically significant antinociception
[8]; 60 mg/kg s.c., 30 minutes
  antinociception: minimal yet statistically significant antinociception
[8]; oral dosing, data not shown
  antinociception: no antinociception was measurable
[9]; 3 mg/kg s.c., 110 minutes
  antinociception: minimal yet statistically significant antinociception
[9]; 60 mg/kg s.c., 30 minutes
  antinociception: minimal yet statistically significant antinociception
[9]; oral dosing, data not shown
  antinociception: no antinociception was measurable
[2]
  cAMP α: 62 ± 6
[11]
  cAMP inhibition: did not inhibit cAMP production

## C/C=C1/CN2CC[C@]34C(=C(C(=O)OC)[C@H]1C[C@H]23)Nc1ccccc14 [Compound 4, akuammicine]
[3]
  displacement of [3H]-DAMGO: displaced
[4]; 1:1:1:1 Hex/EtOAc/MeOH/H2O
  Kacid: <<0.01
  Kbase: 1.63
[4]; 1:1 EtOAc/H2O
  Kacid: 0.02
  Kbase: 222
[4]; 2:2:3 MTBE/CH3CN/H2O
  Kacid: 0.61
  Kbase: 27.7
[4]; 3:1.5:4 MTBE/CH3CN/H2O
  Kacid: 0.14
  Kbase: 64.1
[4]; 3:7:3:7 Hex/EtOAc/MeOH/H2O
  Kacid: <<0.01
  Kbase: 28.9
[5]
  Binding pKi: −7.1 ± 0.1 (3)
[6]
  Ki: 170 nM
